Each structure is given as a SMILES string.

Sequence of Histone deacetylase 2 (Q92769 whole entry): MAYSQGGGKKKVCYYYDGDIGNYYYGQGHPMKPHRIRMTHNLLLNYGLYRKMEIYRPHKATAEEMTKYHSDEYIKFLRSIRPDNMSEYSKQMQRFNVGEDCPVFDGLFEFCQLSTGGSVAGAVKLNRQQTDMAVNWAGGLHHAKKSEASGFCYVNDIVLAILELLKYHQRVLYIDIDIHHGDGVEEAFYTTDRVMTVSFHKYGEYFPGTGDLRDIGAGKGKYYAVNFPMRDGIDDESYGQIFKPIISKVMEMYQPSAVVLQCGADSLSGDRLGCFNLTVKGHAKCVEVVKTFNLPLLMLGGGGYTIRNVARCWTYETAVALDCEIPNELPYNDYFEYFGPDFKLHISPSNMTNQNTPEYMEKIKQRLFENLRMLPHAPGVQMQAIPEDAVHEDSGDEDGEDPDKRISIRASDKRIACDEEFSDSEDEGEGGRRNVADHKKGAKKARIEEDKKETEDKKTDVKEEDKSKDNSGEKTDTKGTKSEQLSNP

The assay has as its target Histone deacetylase 2 (Homo sapiens, UniProt Q92769). The assay is described as follows: Inhibition of full-length recombinant human C-terminal GST tagged HDAC2 expressed in Sf9 insect cells using aminoluciferin peptide substrate at 100 nM preincubated for 3 hrs followed by substrate addition and measured after 30 mins by HDAC-Glo I/II chemiluminescence assay. As to conditions: time 3.5 hrs.
Turning to `Nc1ccc(-c2cccnc2)cc1NC(=O)CCc1cn(C[S+]([O-])c2ccccc2)nn1` (centres undefined), the inhibition turned out to be 0%. Turning to `Cc1csc(CCn2cc(C(=O)Nc3cc(-c4ccccc4)ccc3N)nn2)n1`, the inhibition was 0%.

Turning to `Nc1ccc(-c2ccccc2)cc1NC(=O)c1cn(CCC2CCCCC2)nn1`, the inhibition turned out to be 0%. As for `Nc1ccc(-c2cccs2)cc1NC(=O)c1ccc(-c2cn(CCCCC(=O)O)nn2)cc1`, the inhibition was found to be 36%. With `Nc1ccc(-c2cccs2)cc1NC(=O)c1cccc(-c2cn(CCC34CC5CC(CC(C5)C3)C4)nn2)c1` the figure was 9%; with `Nc1ccc(-c2cccs2)cc1NC(=O)c1ccc(-c2cn(CCc3ccccc3)nn2)cc1`, 65%. `Nc1ccc(-c2cccs2)cc1NC(=O)c1cn(Cc2cccc(C(=O)O)c2)nn1`: the inhibition is 0%.

Regarding `Nc1ccc(-c2ccccc2)cc1NC(=O)CCc1cn(CCCCCCCC(=O)O)nn1`, the inhibition amounted to 0%.

For `Nc1ccc(-c2cccs2)cc1NC(=O)c1ccc(-c2cn(Cc3ccc(-c4ccccc4)cc3)nn2)s1`, the inhibition was found to be 0%. For the molecule `Nc1ccc(-n2cc(CCC(=O)Nc3cc(-c4ccc(F)cc4)ccc3N)nn2)cc1`, the inhibition amounted to 21%. As for `Nc1ccc(-c2ccsc2)cc1NC(=O)CCc1cn(CCc2ccccc2[N+](=O)[O-])nn1`, the inhibition amounted to 23%. Turning to `Nc1ccc(-c2cccs2)cc1NC(=O)c1ccc(-c2cn(CCc3ccc(C(=O)O)cc3)nn2)s1`, the inhibition is 55%.

In the case of `Nc1ccc(-c2cccs2)cc1NC(=O)c1cn(CCCCC(=O)O)nn1`, the inhibition was 3%. Then `Nc1ccc(-c2ccc(F)cc2)cc1NC(=O)c1cn(Cc2cccc3ccccc23)nn1`, with 8%; and `Nc1ccc(-c2cccs2)cc1NC(=O)c1cccc(-c2cn(C[S+]([O-])c3ccccc3)nn2)c1` (centres undefined), with 6%.

Take `Nc1ccc(-c2ccc(F)cc2)cc1NC(=O)c1cn(Cc2ccc3ccccc3c2)nn1`: the inhibition turned out to be 8%. For `Nc1ccc(-c2cccnc2)cc1NC(=O)CCc1cn(CCC23CC4CC(CC(C4)C2)C3)nn1`, the inhibition worked out at 5%.

For the molecule `Nc1ccc(-c2ccsc2)cc1NC(=O)c1cn(CS(=O)(=O)c2ccccc2)nn1`, the inhibition amounted to 14%. For `Nc1ccc(-c2cccs2)cc1NC(=O)c1cn(CCCCCCC(=O)O)nn1`, the inhibition was 7%. `Nc1ccc(-c2ccc(F)cc2)cc1NC(=O)CCc1cn(Cc2ccc(Oc3ccccc3)cc2)nn1`: the inhibition was 0%.

With `Nc1ccc(-c2ccccc2)cc1NC(=O)CCc1cn(CC(=O)c2ccccc2)nn1`, the inhibition is 18%. With `Nc1ccc(-c2ccc(F)cc2)cc1NC(=O)CCc1cn(CCc2c[nH]c3ccccc23)nn1` the figure was 30%. As to `Cc1ccccc1CCn1cc(-c2cccc(C(=O)Nc3cc(-c4cccs4)ccc3N)c2)nn1`, the inhibition is 0%.

For `Cc1ccc(CCn2cc(C(=O)Nc3cc(-c4ccsc4)ccc3N)nn2)cc1`, the inhibition worked out at 8%. Turning to `CCc1ccc(Cn2cc(-c3ccc(C(=O)Nc4cc(-c5cccs5)ccc4N)cc3)nn2)cc1`, the inhibition was 0%. In the case of `COc1ccccc1CCn1cc(C(=O)Nc2cc(-c3ccc(F)cc3)ccc2N)nn1`, the inhibition was determined as 5%.

As to `Nc1ccc(-c2cccs2)cc1NC(=O)c1cn(CC2CCCCC2)nn1`, the inhibition came to 1%.

Take `Nc1ccc(-c2cccs2)cc1NC(=O)c1ccc(-c2cn(Cc3ccc(Oc4ccccc4)cc3)nn2)cc1`: the inhibition is 0%. Turning to `Nc1ccc(-c2ccccc2)cc1NC(=O)CCc1cn(CCc2ccsc2)nn1`, the inhibition is 0%. Then `COc1ccc(Cn2cc(CCC(=O)Nc3cc(-c4cccnc4)ccc3N)nn2)cc1`, with 10%; and `COc1ccc(CCn2cc(-c3ccc(C(=O)Nc4cc(-c5cccs5)ccc4N)s3)nn2)cc1`, with 30%. For `Cc1csc(CCn2cc(C(=O)Nc3cc(-c4ccc(F)cc4)ccc3N)nn2)n1`, the inhibition stood at 10%. On to `Nc1ccc(-c2cccs2)cc1NC(=O)c1ccc(-c2cn(Cc3ccc4ccccc4c3)nn2)s1`, for which the inhibition turned out to be 3%. With `Nc1ccc(-c2ccccc2)cc1NC(=O)CCc1cn(CCc2ccc(C(=O)O)cc2)nn1`, the inhibition amounted to 33%. Then `Nc1ccc(-c2ccccc2)cc1NC(=O)CCc1cn(-c2ccccc2-c2ccccc2)nn1`, with 2%. As to `Nc1ccc(-c2cccs2)cc1NC(=O)c1cn(CCCCCC(=O)O)nn1`, the inhibition was determined as 0%.

`Nc1ccc(-c2ccc(F)cc2)cc1NC(=O)CCc1cn(Cc2ccc(OC(F)(F)F)cc2)nn1`: the inhibition came to 0%.

Take `Nc1ccc(-c2cccnc2)cc1NC(=O)CCc1cn(CCc2ccccn2)nn1`: the inhibition amounted to 0%.

On to `Nc1ccc(-c2ccsc2)cc1NC(=O)CCc1cn(C[S+]([O-])c2ccccc2)nn1` (centres undefined), for which the inhibition was found to be 8%. `Nc1ccc(-c2ccc(F)cc2)cc1NC(=O)CCc1cn(CCc2ccccc2C(F)(F)F)nn1`: the inhibition amounted to 0%. As to `Nc1ccc(-c2ccccc2)cc1NC(=O)CCc1cn(-c2ccc(O)cc2)nn1`, the inhibition turned out to be 3%.

On to `Nc1ccc(-c2cccs2)cc1NC(=O)c1ccc(-c2cn(CCc3cccc([N+](=O)[O-])c3)nn2)s1`, for which the inhibition was determined as 23%.

In the case of `Nc1ccc(-c2cccs2)cc1NC(=O)c1ccc(-c2cn(CCc3ccc(F)cc3)nn2)s1`, the inhibition is 18%.

For the molecule `Nc1ccc(-c2cccnc2)cc1NC(=O)CCc1cn(Cc2ccc(C(=O)O)cc2)nn1`, the inhibition came out at 7%. In the case of `Nc1ccc(-c2ccc(F)cc2)cc1NC(=O)CCc1cn(CC2CCCCC2)nn1`, the inhibition was 1%. With `Cc1ccc(CCn2cc(C(=O)Nc3cc(-c4cccs4)ccc3N)nn2)cc1`, the inhibition worked out at 16%. Take `Nc1ccc(-c2ccsc2)cc1NC(=O)c1cn(CC(=O)Nc2ccc(F)cc2)nn1`: the inhibition was 8%. With `Nc1ccc(-c2ccc(F)cc2)cc1NC(=O)CCc1cn(CCCc2ccccc2)nn1`, the inhibition was found to be 12%.

Turning to `Nc1ccc(-c2cccs2)cc1NC(=O)c1cn(CCc2ccc([N+](=O)[O-])cc2)nn1`, the inhibition was 17%.

In the case of `Nc1ccc(-c2ccccc2)cc1NC(=O)c1cn(CCc2cccc(Cl)c2)nn1`, the inhibition came to 0%. `Nc1ccc(-c2cccnc2)cc1NC(=O)CCc1cn(CCCCCC(=O)O)nn1`: the inhibition is 0%. Then `Nc1ccc(-c2cccs2)cc1NC(=O)c1ccc(-c2cn(-c3cccc4ccccc34)nn2)cc1`, with 0%; and `Nc1ccc(-c2cccnc2)cc1NC(=O)CCc1cn(CCc2ccccc2[N+](=O)[O-])nn1`, with 1%. For `Nc1ccc(-c2cccs2)cc1NC(=O)c1cn(CCc2ccsc2)nn1`, the inhibition came out at 0%.

In the case of `Nc1ccc(-c2cccnc2)cc1NC(=O)CCc1cn(-c2cccc3ccccc23)nn1`, the inhibition amounted to 0%.

As to `Nc1ccc(-c2cccnc2)cc1NC(=O)CCc1cn(CCc2cccc(F)c2)nn1`, the inhibition was 13%.

Take `Cc1csc(CCn2cc(CCC(=O)Nc3cc(-c4cccnc4)ccc3N)nn2)n1`: the inhibition was 6%. As to `Nc1ccc(-c2cccs2)cc1NC(=O)c1ccc(-c2cn(CCCc3ccccc3)nn2)s1`, the inhibition was 16%. For the molecule `Nc1ccc(-n2cc(-c3cccc(C(=O)Nc4cc(-c5cccs5)ccc4N)c3)nn2)cc1`, the inhibition was determined as 30%. As for `Nc1ccc(-c2cccs2)cc1NC(=O)c1cccc(-c2cn(CCCCCC(=O)O)nn2)c1`, the inhibition was 41%. For the molecule `Cc1cccc(C)c1NC(=O)Cn1cc(CCC(=O)Nc2cc(-c3ccc(F)cc3)ccc2N)nn1`, the inhibition is 18%. Take `Nc1ccc(-c2cccs2)cc1NC(=O)CCc1cn(/C=C/c2ccccc2)nn1`: the inhibition amounted to 24%. Then `Nc1ccc(-c2ccccc2)cc1NC(=O)c1cn(C[S+]([O-])c2ccccc2)nn1` (centres undefined), with 0%; and `Nc1ccc(-c2cccnc2)cc1NC(=O)CCc1cn(CCc2ccc(C(=O)O)cc2)nn1`, with 9%; and `Nc1ccc(-c2cccs2)cc1NC(=O)c1cccc(-c2cn(-c3ccc(Br)cc3)nn2)c1`, with 0%. With `Nc1ccc(-c2cccs2)cc1NC(=O)CCc1cn(CCN2CCOCC2)nn1` the figure was 1%; with `Cc1ccc(-n2cc(C(=O)Nc3cc(-c4ccsc4)ccc3N)nn2)cc1C`, 0%. For the molecule `Nc1ccc(-c2cccs2)cc1NC(=O)c1cccc(-c2cn(CCc3cccc(C(F)(F)F)c3)nn2)c1`, the inhibition came to 0%. `Nc1ccc(-c2ccsc2)cc1NC(=O)c1cn(-c2ccc([N+](=O)[O-])cc2)nn1`: the inhibition was found to be 0%. Turning to `Nc1ccc(-c2cccs2)cc1NC(=O)c1ccc(-c2cn(CCc3ccsc3)nn2)s1`, the inhibition is 27%.

`Nc1ccc(-c2ccsc2)cc1NC(=O)c1cn(CCc2ccccc2)nn1`: the inhibition amounted to 17%. On to `Nc1ccc(-c2ccsc2)cc1NC(=O)c1cn(Cc2nc3ccccc3[nH]2)nn1`, for which the inhibition was 25%. Then `Nc1ccc(-c2ccsc2)cc1NC(=O)CCc1cn(CCc2cccc([N+](=O)[O-])c2)nn1`, with 36%; and `Nc1ccc(-c2cccs2)cc1NC(=O)c1ccc(-c2cn(Cc3ccc(Oc4ccccc4)cc3)nn2)s1`, with 0%.

Consider `Nc1ccc(-c2ccsc2)cc1NC(=O)CCc1cn(Cc2cccc(-c3ccccc3)c2)nn1`, for which the inhibition was found to be 0%.

Take `Nc1ccc(-c2ccc(F)cc2)cc1NC(=O)CCc1cn(C[S+]([O-])c2ccccc2)nn1` (centres undefined): the inhibition was found to be 17%. Turning to `Nc1ccc(-c2cccs2)cc1NC(=O)CCc1cn(CCc2ccc(Cl)cc2)nn1`, the inhibition came to 24%. With `Nc1ccc(-c2ccc(F)cc2)cc1NC(=O)c1cn(CCc2ccccc2Cl)nn1` the figure was 0%; with `Nc1ccc(-c2cccs2)cc1NC(=O)c1ccc(-c2cn(Cc3cccc4ccccc34)nn2)s1`, 13%. On to `Nc1ccc(-c2cccs2)cc1NC(=O)c1cn(CS(=O)(=O)c2ccccc2)nn1`, for which the inhibition was determined as 17%. For `Nc1ccc(-c2ccsc2)cc1NC(=O)CCc1cn(CCc2ccccc2Cl)nn1`, the inhibition was 11%. Then `Nc1ccc(-c2ccccc2)cc1NC(=O)c1cn(CCc2ccccc2C(F)(F)F)nn1`, with 0%; and `Nc1ccc(-c2cccnc2)cc1NC(=O)CCc1cn(Cc2ccc(OC(F)(F)F)cc2)nn1`, with 3%; and `Nc1ccc(-c2ccccc2)cc1NC(=O)CCc1cn(CCC2CCCC2)nn1`, with 0%.

For the origin of these results see ChEMBL document CHEMBL5390237, “Discovery of Selective Histone Deacetylase 1 and 2 Inhibitors: Screening of a Focused Library Constructed by Click Chemistry, Kinetic Binding Analysis, and Biological Evaluation” (J Med Chem, 2023).
